Among the data in patent publication EP4578861A1, “NOVEL TRICYCLIC HETEROCYCLIC CARBALDEHYDE COMPOUND AND PHARMACEUTICAL COMPOSITION, CONTAINING SAME, FOR IRE1ALPHA INHIBITION” (Hanmi Pharm. Co., Ltd., priority 2022, dated 2024) are IC50 values, retold here.

Molecules are shown by their SMILES.

The subject of the test is spliced XBP1. Description: Spliced XBP1 mRNA measurement test (RT-PCR, tunicamycin-induced ER stress in MCF-7 cells). The format is cell-based. Particulars: Homo sapiens, MCF7, compound pre-treated for 1 hour, then 2 µg/mL tunicamycin for 6 or 24 hours, spliced XBP1 corrected by total XBP1. The procedure:
With respect to these synthetic compounds, reverse transcription polymerase chain reaction (RT-PCR) experiments were conducted on MCF-7 cancer cells to confirm the effect thereof on the mRNA and protein amounts of spliced XBP1, which is the target of IRE endonuclease. A reverse transcription polymerase chain reaction is a test method in which RNA is extracted from cells, reverse transcriptase is used to make cDNA, and relative mRNA expression level is measured through a polymerase chain reaction.
Briefly, MCF-7 cells were seeded in a 12-well plate and cultured in an incubator including 5% CO2 for one day. On the next day, compounds, which were 10-fold serially diluted from 10,000 nM, were pre-treated for 1 hour, and then, treated with 2 µg/mL tunicamycin for 6 or 24 hours to induce endoplasmic reticulum stress, followed by cell lysis to obtain RNA. RNA was subjected to the procedure of RNeasy Kits (Qiagen, 74106), and 5 µg of RNA sample was dissolved in a sample including reverse transcriptase and dNTP, and reverse transcription reaction was performed with a thermal cycler. The amount of mRNA of each of spliced XBP1 and total XBP1 was measured by a polymerase chain reaction through real time PCR by mixing each cDNA sample with a PCR reaction mixture including a primer pair capable of binding specifically to each target and SYBR green dye. The expression level of spliced XBP1 was corrected by the total expression level of XBP1, and the relative expression levels of spliced XBP1 between samples were compared and analyzed.
With `Cc1c(CC(=O)N2CCOCC2)c(=O)oc2c(C=O)c(O)c3c(c12)CCO3` [Example 1, 4-hydroxy-9-methyl-8-(2-morpholino-2-oxoethyl)-7-oxo-1,7-dihydro-2H-furo[3,2-f]chromene-5-carbaldehyde], the IC50 is under 100 nM. `Cc1c(CC(=O)N2CCOCC2)c(=O)oc2c(C=O)c(O)c3c(c12)OCO3` [Example 2, 4-hydroxy-9-methyl-8-(2-morpholino-2-oxoethyl)-7-oxo-7H-[1,3]dioxolo[4,5-f]chromene-5-carbaldehyde]: the half-maximal inhibitory concentration (IC50) is 100 to 200 nM. For `Cc1c(CC(=O)N2CCOCC2)c(=O)oc2c(C=O)c(O)c3c(c12)CCCO3` [Example 3, 6-hydroxy-1-methyl-2-(2-morpholino-2-oxoethyl)-3-oxo-3,8,9,10-tetrahydropyrano[3,2-f]chromene-5-carbaldehyde] the value was under 100 nM; for `Cc1c(CC(=O)N2CCC(C)CC2)c(=O)oc2c(C=O)c(O)c3c(c12)CCCO3` [Example 4, 6-hydroxy-1-methyl-2-(2-(4-methylpiperidin-1-yl)-2-oxoethyl)-3-oxo-3,8,9,10-tetrahydropyrano[3,2-f]chromene-5-carbaldehyde], at least 200 nM; for `Cc1c(CC(=O)N2CCCC2)c(=O)oc2c(C=O)c(O)c3c(c12)CCCO3` [Example 5, 6-hydroxy-1-methyl-3-oxo-2-(2-oxo-2-(pyrrolidin-1-yl)ethyl)-3,8,9,10-tetrahydropyrano[3,2-f]chromene-5-carbaldehyde], under 100 nM. For `Cc1c(CC(=O)N2CCN(C)CC2)c(=O)oc2c(C=O)c(O)c3c(c12)CCCO3` [Example 6, 6-hydroxy-1-methyl-2-(2-(4-methylpiperazin-1-yl)-2-oxoethyl)-3-oxo-3,8,9,10-tetrahydropyrano[3,2-f]chromene-5-carbaldehyde] the value was under 100 nM; for `Cc1c(CC(=O)N2CCN(C(C)C)CC2)c(=O)oc2c(C=O)c(O)c3c(c12)CCCO3` [Example 7, 6-hydroxy-2-(2-(4-isopropylpiperazin-1-yl)-2-oxoethyl)-1-methyl-3-oxo-3,8,9,10-tetrahydropyrano[3,2-f]chromene-5-carbaldehyde], 100 to 200 nM. For the molecule `CCNC(=O)Cc1c(C)c2c3c(c(O)c(C=O)c2oc1=O)OCC3` [Example 8, N-ethyl-2-(5-formyl-4-hydroxy-9-methyl-7-oxo-1,7-dihydro-2H-furo[3,2-f]chromen-8-yl)acetamide], the IC50 was under 100 nM. Consider `CCN(CC)C(=O)Cc1c(C)c2c3c(c(O)c(C=O)c2oc1=O)OCC3` [Example 9, N,N-diethyl-2-(5-formyl-4-hydroxy-9-methyl-7-oxo-1,7-dihydro-2H-furo[3,2-f]chromen-8-yl)acetamide], for which the IC50 is under 100 nM. In the case of `Cc1c(CC(=O)N2CCC(F)(F)C2)c(=O)oc2c(C=O)c(O)c3c(c12)CCCO3` [Example 10, 2-(2-(3,3-difluoropyrrolidin-1-yl)-2-oxoethyl)-6-hydroxy-1-methyl-3-oxo-3,8,9,10-tetrahydropyrano[3,2-f]chromene-5-carbaldehyde] it was under 100 nM; in that of `Cc1c(CC(=O)N2CCC(C)C2)c(=O)oc2c(C=O)c(O)c3c(c12)CCCO3` (stereo not drawn) [Example 11, 6-hydroxy-1-methyl-2-(2-(3-methylpyrrolidin-1-yl)-2-oxoethyl)-3-oxo-3,8,9,10-tetrahydropyrano[3,2-f]chromene-5-carbaldehyde], under 100 nM.

Turning to `Cc1c(CC(=O)N2CCC(C)(C)C2)c(=O)oc2c(C=O)c(O)c3c(c12)CCCO3` [Example 12, 2-(2-(3,3-dimethylpyrrolidin-1-yl)-2-oxoethyl)-6-hydroxy-1-methyl-3-oxo-3,8,9,10-tetrahydropyrano[3,2-f]chromene-5-carbaldehyde], the half-inhibitory concentration (IC50) lay in the range of 100 to 200 nM. For `Cc1c(CC(=O)N2CCC2)c(=O)oc2c(C=O)c(O)c3c(c12)CCCO3` [Example 13, 2-(2-(azetidin-1-yl)-2-oxoethyl)-6-hydroxy-1-methyl-3-oxo-3,8,9,10-tetrahydropyrano[3,2-f]chromene-5-carbaldehyde] the value was 100 to 200 nM. For `COC1CCN(C(=O)Cc2c(C)c3c4c(c(O)c(C=O)c3oc2=O)OCCC4)C1` (stereo not drawn) [Example 14, 6-hydroxy-2-(2-(3-methoxypyrrolidin-1-yl)-2-oxoethyl)-1-methyl-3-oxo-3,8,9,10-tetrahydropyrano[3,2-f]chromene-5-carbaldehyde] the value was 100 to 200 nM. `COC1CN(C(=O)Cc2c(C)c3c4c(c(O)c(C=O)c3oc2=O)OCCC4)C1` [Example 15, 6-hydroxy-2-(2-(3-methoxyazetidin-1-yl)-2-oxoethyl)-1-methyl-3-oxo-3,8,9,10-tetrahydropyrano[3,2-f]chromene-5-carbaldehyde]: the IC50 is 100 to 200 nM. Regarding `Cc1c(CC(=O)N2CCC(F)C2)c(=O)oc2c(C=O)c(O)c3c(c12)CCCO3` (stereo not drawn) [Example 16, 2-(2-(3-fluoropyrrolidin-1-yl)-2-oxoethyl)-6-hydroxy-1-methyl-3-oxo-3,8,9,10-tetrahydropyrano[3,2-f]chromene-5-carbaldehyde], the half-inhibitory concentration (IC50) is at least 200 nM. In the case of `CCNC(=O)Cc1c(C)c2c3c(c(O)c(C=O)c2oc1=O)OCCC3` [Example 17, N-ethyl-2-(5-formyl-6-hydroxy-1-methyl-3-oxo-3,8,9,10-tetrahydropyrano[3,2-f]chromen-2-yl)acetamide] it was under 100 nM; in that of `CCc1c(CC(=O)N2CCCC2)c(=O)oc2c(C=O)c(O)c3c(c12)CCCO3` [Example 18, 1-ethyl-6-hydroxy-3-oxo-2-(2-oxo-2-(pyrrolidin-1-yl)ethyl)-3,8,9,10-tetrahydropyrano[3,2-f]chromene-5-carbaldehyde], at least 200 nM; in that of `Cc1c(CC(=O)N2CC(F)C2)c(=O)oc2c(C=O)c(O)c3c(c12)CCCO3` [Example 19, 2-(2-(3-fluoroazetidin-1-yl)-2-oxoethyl)-6-hydroxy-1-methyl-3-oxo-3,8,9,10-tetrahydropyrano[3,2-f]chromene-5-carbaldehyde], 100 to 200 nM. For `Cc1c(CC(=O)N2CCC3(CC3)C2)c(=O)oc2c(C=O)c(O)c3c(c12)CCCO3` [Example 20, 6-hydroxy-1-methyl-3-oxo-2-(2-oxo-2-(5-azaspiro[2.4]heptan-5-yl)ethyl)-3,8,9,10-tetrahydropyrano[3,2-f]chromene-5-carbaldehyde] the value was 100 to 200 nM; for `Cc1c(CC(=O)N2CCCCC2)c(=O)oc2c(C=O)c(O)c3c(c12)CCCO3` [Example 21, 6-hydroxy-1-methyl-3-oxo-2-(2-oxo-2-(piperidin-1-yl)ethyl)-3,8,9,10-tetrahydropyrano[3,2-f]chromene-5-carbaldehyde], at least 200 nM. In the case of `Cc1c(CC(N)=O)c(=O)oc2c(C=O)c(O)c3c(c12)CCCO3` [Example 22, 2-(5-formyl-6-hydroxy-1-methyl-3-oxo-3,8,9,10-tetrahydropyrano[3,2-f]chromen-2-yl)acetamide] it was at least 200 nM. `CC(C)c1c(CC(=O)N2CCCC2)c(=O)oc2c(C=O)c(O)c3c(c12)CCCO3` [Example 23, 6-hydroxy-1-isopropyl-3-oxo-2-(2-oxo-2-(pyrrolidin-1-yl)ethyl)-3,8,9,10-tetrahydropyrano[3,2-f]chromene-5-carbaldehyde]: the IC50 fell in the range of 100 to 200 nM. In the case of `COCCNC(=O)Cc1c(C)c2c3c(c(O)c(C=O)c2oc1=O)OCCC3` [Example 24, 2-(5-formyl-6-hydroxy-1-methyl-3-oxo-3,8,9,10-tetrahydropyrano[3,2-f]chromen-2-yl)-N-(2-methoxyethyl)acetamide] it was under 100 nM.

Usually IC50 stands for the point on the concentration scale where inhibition reaches its midpoint.
